The target in this experiment is T1, GLP-1R (Homo sapiens, UniProt P43220).
T1 construct: host or cells: CHO cells
Nature of the experiment: GLP-1R activation cAMP assay (Assay 1 or Assay 2). The format is cell-based. To be noted: cAMP increase in CHO cells stably expressing GLP-1R; compounds run on one of the two cAMP assays. In short, it runs like this: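 EC50 values come from a sigmoidal fit of HTRF-detected cAMP rise versus log agonist concentration. GLP-1R-expressing CHO cells, equilibrated 1 h at 37 °C in HBSS with HEPES and BSA, received a 10-point compound dose series for 30 min before detection.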
(In general: Cyclic AMP is a second messenger, typically raised through Gs and lowered through Gi signalling.)

Broadly, the EC50 is the concentration giving half of the maximal effect. Low readings indicate an effect from little substance, high ones a need for much substance.

T1 sequence (P43220 24-463): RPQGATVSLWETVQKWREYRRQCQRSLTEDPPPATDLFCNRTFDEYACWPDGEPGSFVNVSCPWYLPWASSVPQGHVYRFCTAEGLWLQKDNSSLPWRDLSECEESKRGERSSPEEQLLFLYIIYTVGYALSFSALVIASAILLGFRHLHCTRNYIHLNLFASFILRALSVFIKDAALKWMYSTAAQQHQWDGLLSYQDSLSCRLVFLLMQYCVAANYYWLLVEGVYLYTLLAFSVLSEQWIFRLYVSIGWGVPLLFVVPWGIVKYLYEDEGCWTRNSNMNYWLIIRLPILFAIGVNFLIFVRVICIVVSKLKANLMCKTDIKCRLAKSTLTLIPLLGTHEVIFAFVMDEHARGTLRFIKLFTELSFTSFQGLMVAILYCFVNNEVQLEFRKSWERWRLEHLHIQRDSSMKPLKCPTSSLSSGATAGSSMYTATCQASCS

Take `NC(=O)CNC(=O)c1ccc(COc2cccc(-c3cc(F)c(Cc4nc5ccc(C(=O)O)cc5n4C[C@@H]4CCO4)cc3F)n2)cn1` [Example 176, (S)-2-(4-(6-((6-((2-amino-2-oxoethyl)carbamoyl)pyridin-3-yl)methoxy)pyridin-2-yl)-2,5-difluorobenzyl)-1-(oxetan-2-ylmethyl)-1H-benzo[d]imidazole-6-carboxylic acid]: the EC50 was determined as 2.19 nM.
Next, `Cn1cnc(COc2cccc(-c3cc(F)c(Cc4nc5ccc(C(=O)O)cc5n4C[C@@H]4CCO4)cc3F)n2)c1` [Example 177, (S)-2-(2,5-difluoro-4-(6-((1-methyl-1H-imidazol-4-yl)methoxy)pyridin-2-yl)benzyl)-1-(oxetan-2-ylmethyl)-1H-benzo[d]imidazole-6-carboxylic acid]: 34.6 nM; `Cn1cncc1COc1cccc(-c2cc(F)c(Cc3nc4ccc(C(=O)O)cc4n3C[C@@H]3CCO3)cc2F)n1` [Example 178, (S)-2-(2,5-difluoro-4-(6-((1-methyl-1H-imidazol-5-yl)methoxy)pyridin-2-yl)benzyl)-1-(oxetan-2-ylmethyl)-1H-benzo[d]imidazole-6-carboxylic acid]: 23.6 nM.
To `Cc1ncc(COc2cccc(-c3cc(F)c(Cc4nc5ccc(C(=O)O)cc5n4C[C@@H]4CCO4)cc3F)n2)n1C` [Example 179, (S)-2-(4-(6-((1,2-dimethyl-1H-imidazol-5-yl)methoxy)pyridin-2-yl)-2,5-difluorobenzyl)-1-(oxetan-2-ylmethyl)-1H-benzo[d]imidazole-6-carboxylic acid] belongs 4.59 nM; to `Cc1nc(COc2cccc(-c3cc(F)c(Cc4nc5ccc(C(=O)O)cc5n4C[C@@H]4CCO4)cc3F)n2)cn1C(F)F` [Example 180, (S)-2-(4-(6-((1-(difluoromethyl)-2-methyl-1H-imidazol-4-yl)methoxy)pyridin-2-yl)-2,5-difluorobenzyl)-1-(oxetan-2-ylmethyl)-1H-benzo[d]imidazole-6-carboxylic acid], 28 nM.
Compound `O=C(O)c1ccc2nc(Cc3cc(F)c(-c4cccc(OCc5cc[nH]n5)n4)cc3F)n(C[C@@H]3CCO3)c2c1` [Example 181, (S)-2-(4-(6-((1H-pyrazol-3-yl)methoxy)pyridin-2-yl)-2,5-difluorobenzyl)-1-(oxetan-2-ylmethyl)-1H-benzo[d]imidazole-6-carboxylic acid] showed an EC50 of 5.99 nM.
Take `CC1(C)COC[C@@H]1n1c(Cc2cc(F)c(-c3cccc(OCc4ncc(C#N)s4)n3)cc2F)nc2ccc(C(=O)O)cc21` [Example 182, (R)-2-(4-(6-((5-cyanothiazol-2-yl)methoxy)pyridin-2-yl)-2,5-difluorobenzyl)-1-(4,4-dimethyltetrahydrofuran-3-yl)-1H-benzo[d]imidazole-6-carboxylic acid]: the EC50 was 0.19 nM.
To `N#CC1(NC(=O)c2ccc(COc3cccc(-c4cc(F)c(Cc5nc6ccc(C(=O)O)cc6n5C[C@@H]5CCO5)cc4F)n3)cn2)CC1` [Example 183, (S)-2-(4-(6-((6-((1-cyanocyclopropyl)carbamoyl)pyridin-3-yl)methoxy)pyridin-2-yl)-2,5-difluorobenzyl)-1-(oxetan-2-ylmethyl)-1H-benzo[d]imidazole-6-carboxylic acid] belongs 0.26 nM; to `N#CC1(NC(=O)c2cc(Cl)c(COc3cccc(-c4cc(F)c(Cc5nc6ccc(C(=O)O)cc6n5C[C@@H]5CCO5)cc4F)n3)cn2)CC1` [Example 184, (S)-2-(4-(6-((4-chloro-6-((1-cyanocyclopropyl)carbamoyl)pyridin-3-yl)methoxy)pyridin-2-yl)-2,5-difluorobenzyl)-1-(oxetan-2-ylmethyl)-1H-benzo[d]imidazole-6-carboxylic acid], 0.12 nM; to `N#CC1(NC(=O)c2cc(Cl)c(COc3cccc(-c4cc(F)c(Cc5nc6c(F)cc(C(=O)O)cc6n5C[C@@H]5CCO5)cc4F)n3)cn2)CC1` [Example 185, (S)-2-(4-(6-((4-chloro-6-((1-cyanocyclopropyl)carbamoyl)pyridin-3-yl)methoxy)pyridin-2-yl)-2,5-difluorobenzyl)-4-fluoro-1-(oxetan-2-ylmethyl)-1H-benzo[d]imidazole-6-carboxylic acid], 0.08 nM.
Compound `O=C(O)c1ccc2nc(Cc3cc(F)c(-c4cccc(OCc5cnc(C(=O)NC6(C(F)F)CC6)cc5Cl)n4)cc3F)n(C[C@@H]3CCO3)c2c1` [Example 186, (S)-2-(4-(6-((4-chloro-6-((1-(difluoromethyl)cyclopropyl)carbamoyl)pyridin-3-yl)methoxy)pyridin-2-yl)-2,5-difluorobenzyl)-1-(oxetan-2-ylmethyl)-1H-benzo[d]imidazole-6-carboxylic acid] displayed an EC50 of 0.91 nM.
To `N#CC1(NC(=O)c2cc(Cl)c(COc3cccc(-c4cc(F)c(Cc5nc6ccc(C(=O)O)cc6n5C[C@@H]5CCO5)cc4F)n3)cn2)COC1` [Example 187, (S)-2-(4-(6-((4-chloro-6-((3-cyanooxetan-3-yl)carbamoyl)pyridin-3-yl)methoxy)pyridin-2-yl)-2,5-difluorobenzyl)-1-(oxetan-2-ylmethyl)-1H-benzo[d]imidazole-6-carboxylic acid] belongs 0.12 nM; to `N#CC1(NC(=O)c2cc(Cl)c(COc3cccc(-c4cc(F)c(Cc5nc6c(F)cc(C(=O)O)cc6n5C[C@@H]5CCO5)cc4F)n3)cn2)COC1` [Example 188, (S)-2-(4-(6-((4-chloro-6-((3-cyanooxetan-3-yl)carbamoyl)pyridin-3-yl)methoxy)pyridin-2-yl)-2,5-difluorobenzyl)-4-fluoro-1-(oxetan-2-ylmethyl)-1H-benzo[d]imidazole-6-carboxylic acid], 0.05 nM; to `N#CC1(NC(=O)c2cc(Cl)c(COc3cccc(-c4cc(F)c(Cc5nc6ccc(C(=O)O)cc6n5C[C@@H]5CCO5)cc4F)n3)cn2)CCC1` [Example 189, (S)-2-(4-(6-((4-chloro-6-((1-cyanocyclobutyl)carbamoyl)pyridin-3-yl)methoxy)pyridin-2-yl)-2,5-difluorobenzyl)-1-(oxetan-2-ylmethyl)-1H-benzo[d]imidazole-6-carboxylic acid], 0.3 nM.
Next, `N#CC1(NC(=O)c2cc(Cl)c(COc3cccc(-c4cc(F)c(Cc5nc6c(F)cc(C(=O)O)cc6n5C[C@@H]5CCO5)cc4F)n3)cn2)CCC1` [Example 190, (S)-2-(4-(6-((4-chloro-6-((1-cyanocyclobutyl)carbamoyl)pyridin-3-yl)methoxy)pyridin-2-yl)-2,5-difluorobenzyl)-4-fluoro-1-(oxetan-2-ylmethyl)-1H-benzo[d]imidazole-6-carboxylic acid]: 0.2 nM; `O=C(O)c1ccc2nc(Cc3cc(F)c(-c4cccc(OCc5cnc(C(=O)NCC(F)(F)F)cc5Cl)n4)cc3F)n(C[C@@H]3CCO3)c2c1` [Example 191, (S)-2-(4-(6-((4-chloro-6-((2,2,2-trifluoroethyl)carbamoyl)pyridin-3-yl)methoxy)pyridin-2-yl)-2,5-difluorobenzyl)-1-(oxetan-2-ylmethyl)-1H-benzo[d]imidazole-6-carboxylic acid]: 0.69 nM.
In turn, `O=C(O)c1ccc2nc(Cc3cc(F)c(-c4cccc(OCc5cnc(C(=O)NCC(F)F)cc5Cl)n4)cc3F)n(C[C@@H]3CCO3)c2c1` [Example 192, (S)-2-(4-(6-((4-chloro-6-((2,2-difluoroethyl)carbamoyl)pyridin-3-yl)methoxy)pyridin-2-yl)-2,5-difluorobenzyl)-1-(oxetan-2-ylmethyl)-1H-benzo[d]imidazole-6-carboxylic acid] yielded an EC50 of 0.32 nM.
The compound `Cn1cc(CNC(=O)c2cc(Cl)c(COc3cccc(-c4cc(F)c(Cc5nc6ccc(C(=O)O)cc6n5C[C@@H]5CCO5)cc4F)n3)cn2)cn1` [Example 193, (S)-2-(4-(6-((4-chloro-6-(((1-methyl-1H-pyrazol-4-yl)methyl)carbamoyl)pyridin-3-yl)methoxy)pyridin-2-yl)-2,5-difluorobenzyl)-1-(oxetan-2-ylmethyl)-1H-benzo[d]imidazole-6-carboxylic acid] registered an EC50 of 0.22 nM.
To `Cn1cc(NC(=O)c2cc(Cl)c(COc3cccc(-c4cc(F)c(Cc5nc6ccc(C(=O)O)cc6n5C[C@@H]5CCO5)cc4F)n3)cn2)cn1` [Example 194, (S)-2-(4-(6-((4-chloro-6-((1-methyl-1H-pyrazol-4-yl)carbamoyl)pyridin-3-yl)methoxy)pyridin-2-yl)-2,5-difluorobenzyl)-1-(oxetan-2-ylmethyl)-1H-benzo[d]imidazole-6-carboxylic acid] belongs 0.17 nM; to `Cn1nccc1CNC(=O)c1cc(Cl)c(COc2cccc(-c3cc(F)c(Cc4nc5ccc(C(=O)O)cc5n4C[C@@H]4CCO4)cc3F)n2)cn1` [Example 195, (S)-2-(4-(6-((4-chloro-6-(((1-methyl-1H-pyrazol-5-yl)methyl)carbamoyl)pyridin-3-yl)methoxy)pyridin-2-yl)-2,5-difluorobenzyl)-1-(oxetan-2-ylmethyl)-1H-benzo[d]imidazole-6-carboxylic acid], 0.11 nM.
Next, `Cn1nccc1NC(=O)c1cc(Cl)c(COc2cccc(-c3cc(F)c(Cc4nc5ccc(C(=O)O)cc5n4C[C@@H]4CCO4)cc3F)n2)cn1` [Example 196, (S)-2-(4-(6-((4-chloro-6-((1-methyl-1H-pyrazol-5-yl)carbamoyl)pyridin-3-yl)methoxy)pyridin-2-yl)-2,5-difluorobenzyl)-1-(oxetan-2-ylmethyl)-1H-benzo[d]imidazole-6-carboxylic acid]: 0.29 nM.
Consider `N#CC1(NC(=O)c2ccc(COc3cccc(-c4cc(F)c(Cc5nc6c(F)cc(C(=O)O)cc6n5C[C@@H]5CCO5)cc4F)n3)cn2)CC1` [Example 197, (S)-2-(4-(6-((6-((1-cyanocyclopropyl)carbamoyl)pyridin-3-yl)methoxy)pyridin-2-yl)-2,5-difluorobenzyl)-4-fluoro-1-(oxetan-2-ylmethyl)-1H-benzo[d]imidazole-6-carboxylic acid], for which the response was half-maximal at 0.08 nM (EC50).

For the origin of these results see patent publication US20250312352A1, “GLP-1R MODULATING COMPOUNDS” (Gilead Sciences, Inc., priority 2021, published 2025).
